Experimental data: ChEMBL document CHEMBL5634090, “Design of phenothiazine-based cationic amphiphilic derivatives incorporating arginine residues: Potential membrane-active broad-spectrum antimicrobials combating pathogenic bacteria in vitro and in vivo” (Eur J Med Chem, 2023)
Several values for one entry are separate records, joined by “and”; a condition that tells them apart may be missing. Equal entries are not always repeated. Activity calls are given as the source filed them. The rule behind the calls is not given here.

Tests used:
Klebsiella pneumoniae [1] = experiment: Inhibition of biofilm formation in Klebsiella pneumoniae ATCC 10031 at 6.25 ug/ml by crystal violet staining assay relative to control; assay type: functional
Staphylococcus aureus [2] = experiment: Antibacterial activity against methicillin resistant Staphylococcus aureus NCTC 10442 in presence of 2.5 mmol/L Ca2+ by broth microdilution method; assay type: functional
[3] = Cytotoxicity against HEK293 cells assessed as cell survival rate at 50 ug/ml by CCK-8 assay relative to control; assay type: toxicity, cell-based; details: human, at 50 µg/mL, read-out: Activity
Staphylococcus aureus [4] = experiment: Antibacterial activity against Staphylococcus aureus ATCC 29213 in presence of 140 mmol/L Na+ by broth microdilution method; assay type: functional
[5] = Selectivity index, ratio of CC50 for cytotoxicity against mouse NCTC clone 929 cells to MIC for antibacterial activity against Staphylococcus aureus ATCC 29213; assay type: toxicity, cell-based; details: read-out: Selectivity Index
Staphylococcus aureus [6] = experiment: Antibiofilm activity against 24 hrs preformed biofilm in Staphylococcus aureus ATCC 29213 assessed as reduction in biofilm viability at 6.25 ug/ml relative to control; assay type: functional; details: dose 6.25 µg/ml
Klebsiella pneumoniae [7] = experiment: Antibacterial activity against Klebsiella pneumoniae ATCC 14581 in presence of 19 umol/L Fe2+ by broth microdilution method; assay type: functional
Klebsiella pneumoniae [8] = experiment: Antibacterial activity against Klebsiella pneumoniae ATCC 14581 in presence of 19 umol/L Zn2+ by broth microdilution method; assay type: functional
[9] = Cytotoxicity against mouse NCTC clone 929 cells assessed as cell survival rate at 12.5 ug/ml by CCK-8 assay relative to control; assay type: toxicity, cell-based; details: NCTC clone 929 (L929) cells, at 12.5 µg/mL, read-out: Activity
Staphylococcus aureus [10] = experiment: Antibacterial activity against methicillin resistant Staphylococcus aureus N315 in presence of 19 umol/L Zn2+ by broth microdilution method; assay type: functional
Staphylococcus aureus [11] = experiment: Antibacterial activity against Staphylococcus aureus ATCC 29213 assessed as cell membrane disruption by SYTOX Green assay; assay type: functional, organism-based
Klebsiella pneumoniae [12] = experiment: Induction of resistance development in Klebsiella pneumoniae ATCC 10031 assessed as fold increase in MIC treated over 20 serial passages by microdilution assay; assay type: functional
Klebsiella pneumoniae [13] = experiment: Antibacterial activity against Klebsiella pneumoniae ATCC 10031 assessed as log reduction in bacterial load at 4 times MIC measured after 2 hrs by time kill assay; assay type: functional
Klebsiella pneumoniae [14] = experiment: Antibacterial activity against Klebsiella pneumoniae ATCC 10031 assessed as cell membrane disruption by SYTOX Green assay; assay type: functional, organism-based
Staphylococcus aureus [15] = experiment: Inhibition of biofilm formation in Staphylococcus aureus ATCC 29213 by crystal violet staining assay; assay type: functional, organism-based; details: dose 0.39-12.5 µg/ml
Staphylococcus aureus [16] = experiment: Antibacterial activity against Staphylococcus aureus ATCC 29213 in presence of 19 umol/L Zn2+ by broth microdilution method; assay type: functional
[17] = Selectivity index, ratio of CC50 for cytotoxicity against HEK293 cells to MIC for antibacterial activity against methicillin resistant Staphylococcus aureus NCTC 10442; assay type: toxicity, cell-based; details: human, read-out: Selectivity Index
Pseudomonas aeruginosa [18] = experiment: Antibacterial activity against Pseudomonas aeruginosa ATCC 9027 infected in cyclophosphamide immunosuppressed keratitis mouse model assessed as log reduction in number of viable bacterial colonies at 10 mg/ml administrated tropically; assay type: functional
Escherichia coli [19] = experiment: Antibacterial activity against Escherichia coli ATCC 25922 in presence of 2.5 mmol/L Ca2+ by broth microdilution method; assay type: functional
Staphylococcus aureus [20] = experiment: Antibiofilm activity against 24 hrs preformed biofilm in Staphylococcus aureus ATCC 29213 assessed as reduction in biofilm viability at 12.5 ug/ml relative to control; assay type: functional; details: dose 12.5 µg/ml
Staphylococcus aureus [21] = experiment: Antibiofilm activity against 24 hrs preformed biofilm in Staphylococcus aureus ATCC 29213 assessed as reduction in biofilm viability at 0.78 ug/ml relative to control; assay type: functional; details: dose 0.78 µg/ml
Pseudomonas aeruginosa [22] = experiment: Antibacterial activity against Pseudomonas aeruginosa ATCC 9027 in presence of 19 umol/L Zn2+ by broth microdilution method; assay type: functional
Staphylococcus aureus [23] = experiment: Antibacterial activity against methicillin resistant Staphylococcus aureus N315 in presence of 4.5 mmol/L K+ by broth microdilution method; assay type: functional
Klebsiella pneumoniae [24] = experiment: Antibacterial activity against Klebsiella pneumoniae ATCC 14581 in presence of 4.5 mmol/L K+ by broth microdilution method; assay type: functional
Staphylococcus aureus [25] = experiment: Antibacterial activity against Staphylococcus aureus ATCC 29213 assessed as loss in cell viability at 8 times MIC incubated for 4 hrs by LIVE/DEAD BacLight bacterial viability assay; assay type: functional, organism-based; details: Cell membrane
Escherichia coli [26] = experiment: Antibacterial activity against Escherichia coli ATCC 25922 in presence of 19 umol/L Zn2+ by broth microdilution method; assay type: functional
Klebsiella pneumoniae [27] = experiment: Antibacterial activity against Klebsiella pneumoniae ATCC 10031 in presence of 19 umol/L Fe2+ by broth microdilution method; assay type: functional
Klebsiella pneumoniae [28] = experiment: Antibacterial activity against Klebsiella pneumoniae ATCC 10031 in presence of 2.5 mmol/L Ca2+ by broth microdilution method; assay type: functional
Staphylococcus aureus [29] = experiment: Antibacterial activity against methicillin resistant Staphylococcus aureus NCTC 10442 in presence of 4.5 mmol/L K+ by broth microdilution method; assay type: functional
[30] = Cytotoxicity against mouse NCTC clone 929 cells assessed as cell survival rate at 25 ug/ml by CCK-8 assay relative to control; assay type: toxicity, cell-based; details: NCTC clone 929 (L929) cells, at 25 µg/mL, read-out: Activity
Staphylococcus aureus [31] = experiment: Antibacterial activity against Staphylococcus aureus ATCC 29213 infected in cyclophosphamide immunosuppressed keratitis mouse model assessed as log reduction in number of viable bacterial colonies at 10 mg/ml administrated tropically; assay type: functional
[32] = Selectivity index, ratio of CC50 for cytotoxicity against HEK293 cells to MIC for antibacterial activity against Klebsiella pneumoniae ATCC 14581; assay type: toxicity, cell-based; details: human, read-out: Selectivity Index
[33] = Selectivity index, ratio of CC50 for cytotoxicity against HEK293 cells to MIC for antibacterial activity against Pseudomonas aeruginosa ATCC 9027; assay type: toxicity, cell-based; details: human, read-out: Selectivity Index
Staphylococcus aureus [34] = experiment: Antibiofilm activity against 24 hrs preformed biofilm in Staphylococcus aureus ATCC 29213 assessed as reduction in biofilm viability at 3.125 ug/ml relative to control; assay type: functional; details: dose 3.125 µg/ml
Staphylococcus aureus [35] = experiment: Antibacterial activity against methicillin resistant Staphylococcus aureus NCTC 10442 in presence of 20 umol/L Fe3+ by broth microdilution method; assay type: functional
[36] = Cytotoxicity against mouse NCTC clone 929 cells by CCK-8 assay; assay type: toxicity, cell-based; details: NCTC clone 929 (L929) cells
Staphylococcus aureus [37] = experiment: Antibacterial activity against methicillin resistant Staphylococcus aureus N315 in presence of 140 mmol/L Na+ by broth microdilution method; assay type: functional
Pseudomonas aeruginosa [38] = experiment: Antibacterial activity against Pseudomonas aeruginosa ATCC 9027 in presence of 2.50 mmol/L Ca2+ by broth microdilution method; assay type: functional
Staphylococcus aureus [39] = experiment: Antibacterial activity against methicillin resistant Staphylococcus aureus NCTC 10442 in presence of 20 umol/L Fe2+ by broth microdilution method; assay type: functional
Staphylococcus aureus [40] = experiment: Antibiofilm activity against 24 hrs preformed biofilm in Staphylococcus aureus ATCC 29213 assessed as reduction in biofilm viability at […] ug/ml relative to control; assay type: functional; details: dose […] microg/ml; 1.56 ug/mL

CCCCCCCN1c2ccccc2Sc2ccc(OCC(=O)N[C@@H](CCCNC(=N)N)C(=O)N[C@@H](CCCNC(=N)N)C(N)=O)cc21
inhibition at 6.25 µg/mL (Klebsiella pneumoniae [1]): 90% | MIC (Staphylococcus aureus [2]): 3.12 µg/mL | viability at 50 ug/ml [3]: 56% | MIC (Staphylococcus aureus [4]): 1.56 µg/mL | selectivity ratio [5]: 8 | Activity (Staphylococcus aureus [6]): 15.93% | MIC (Klebsiella pneumoniae [7]): 3.12 µg/mL | MIC (Klebsiella pneumoniae [8]): 3.12 µg/mL | viability at 12.5 ug/ml [9]: 70.8% | MIC (Staphylococcus aureus [10]): 1.56 µg/mL | Activity (Staphylococcus aureus [11]): Dose-Dependent Effect | fold change (FC) (Klebsiella pneumoniae [12]): < 4 | log(activity) (Klebsiella pneumoniae [13]): >3 | Activity (Klebsiella pneumoniae [14]): Dose-Dependent Effect | inhibition (Staphylococcus aureus [15]): Dose-Dependent Effect | MIC (Staphylococcus aureus [16]): 1.56 µg/mL | selectivity ratio [17]: 8 | log(activity) (Pseudomonas aeruginosa [18]): 5.93 | MIC (Escherichia coli [19]): 3.12 µg/mL | Activity (Staphylococcus aureus [20]): 9.12% | Activity (Staphylococcus aureus [21]): 91.66% | MIC (Pseudomonas aeruginosa [22]): 3.12 µg/mL | MIC (Staphylococcus aureus [23]): 1.56 µg/mL | MIC (Klebsiella pneumoniae [24]): 3.12 µg/mL | Activity (Staphylococcus aureus [25]): Active | MIC (Escherichia coli [26]): 3.12 µg/mL | MIC (Klebsiella pneumoniae [27]): 6.25 µg/mL | MIC (Klebsiella pneumoniae [28]): 3.12 µg/mL | MIC (Staphylococcus aureus [29]): 1.56 µg/mL | viability at 25 ug/ml [30]: 70.8% | log(activity) (Staphylococcus aureus [31]): 5.28 | selectivity ratio [32]: 8 | selectivity ratio [33]: 8 | Activity (Staphylococcus aureus [34]): 27.75% | MIC (Staphylococcus aureus [35]): 1.56 µg/mL | CC50 [36]: > 50 µg/mL and 73.3 µM | MIC (Staphylococcus aureus [37]): 1.56 µg/mL | MIC (Pseudomonas aeruginosa [38]): 6.25 µg/mL | MIC (Staphylococcus aureus [39]): 1.56 µg/mL | Activity (Staphylococcus aureus [40]): 62.14%
